Assay results taken from publication PMC9428149, “Tackling recalcitrant Pseudomonas aeruginosa infections in critical illness via anti-virulence monotherapy” (Nature Communications, 2022).
Values after ≈ are worked out from the molar mass of the structure shown. Read-outs that look alike come from different tables or passages of the source.

Tests used:
PA14 AT/P cells = test: AT/P cells formation assay in PA14; assay type: cell-based, Pseudomonas aeruginosa; details: Pseudomonas aeruginosa, PA14, 24 h, read-out: inhibition of AT/P cells formation
[1] = test system: pyocyanin production in PA14; test: Pyocyanin production assay; details: Pseudomonas aeruginosa
[2] = test system: pqsA promoter (PA14 PpqsA-GFPASV); test: pqsA-GFP reporter expression; assay type: cell-based, Pseudomonas aeruginosa; details: Pseudomonas aeruginosa
[3] = Solubility in iPBS pH 7.4 by HPLC; assay type: physicochemical; details: isotonic phosphate buffer (iPBS), aqueous with cosolvent or surfactant or cyclodextrin, kinetic from dmso stock; iPBS pH 7.4, HPLC; read-out: Solubility (M) in PBS
Description: Solubility of the 10 mM compounds dissolved in DMSO was tested in the isotonic phosphate buffer (iPBS) at pH 7.4 using High-Performance Liquid Chromatography (HPLC). For the preparation of iPBS phosphate-buffered saline tab (Sigma-Aldrich 08057-12Tab-F) is dissolved in 500 mL of deionized water and the final composition of the solution contains 10 mM PBS, 2.7 mM KCl, 140 mM NaCl and 0.05% Tween. A total 10 µL of the compound from a 10 mM stock solution in DMSO was added to the vial, and 190 µL of buffer was added to each vial and mixed with shaking at room temperature for 4 h. Thereafter the samples were filtered, and 160 µL of the sample was mixed with 40 µL of DMSO for the final injection. Ibuprofen (high solubility) and Progesterone (low Solubility) were used as standard compounds. Ammonium Acetate aqueous solution (50 mM, pH 7.4) and the acetonitrile were used as mobile phases A and B, respectively. The measurement of concentration was achieved by comparing of UV absorbance of the sample solution and the known standard solution following an HPLC separation using a generic fast gradient method. The solubility of each compound is expressed by the ratio of compound amount in the sample test solution to the amount of compound in the standard solution.

MvfR protein (MvfRC87) = target: T1, MvfR protein (MvfRC87) (Pseudomonas aeruginosa, UniProt Q9I4X0); assay type: binding; details: SPR
T1 construct: The MvfRC87 protein purified as in Xiao et. al., 2006; made in house
Description: The selected compounds were tested for their ability to bind to MvfR. Target validation was carried out by using surface plasmon resonance (SPR). The MvfRC87 protein purified as in Xiao et. al., 2006[33] was covalently immobilized on a CM7 Series S sensor chip using an amine coupling reagent kit (GE Healthcare) at the range level of 3000 to 5000 response units (RU). RU was analyzed by Biacore T200 evaluation software 2.0 (GE Healthcare). The relative response units (RUs) 5 seconds before the end of the association were extracted from the double-reference-corrected sensor grams at different concentrations. These responses were plotted against their respective concentrations for MvfR inhibitor alone and in the presence of native MvfR ligand PQS and compared to the calculated responses for the mixture expected for different binding sites.

[4] = test system: mvfR mutant constitutively expressing the pqsABCDE operon; assay type: cell-based; details: Pseudomonas aeruginosa, control about 100, single replicates (Figure 4a)
[5] = test system: 16 MDR P. aeruginosa clinical isolates; test: Pyocyanin production in MDR clinical isolates; details: Pseudomonas aeruginosa, 18 h, Control about 100, replicates
Description: The over-day culture was grown to OD600nm 1.5., diluted again at 1:10,000 in 5 mL LB and incubated with 10 μM of the test compound or the vehicle control for 18 hours at 37 °C and 200 rpm in an incubator shaker. After 18 h, 1 mL of culture was centrifuged for 2 min at 20.000 x g. The supernatant was transferred to a new tube, 200 μL of this were loaded in a flat-bottom 96-well plate, and the pyocyanin levels were quantified by measuring at OD690nm in the infinite F200 plate reader using the Magellan software (Tecan, Switzerland). The same procedure was also followed for the pyocyanin production assessment for all the P. aeruginosa clinical isolates assessed in this study. The percent of pyocyanin was calculated compared to the PA14 culture grown in the absence of compounds.
Pyocyanin production was measured in 16 P.
aeruginosa clinical isolates 18hr post-growth in the presence or absence of 10 µM of each NAM
compound. The percent of pyocyanin production was calculated by comparing the same strain grown
in the presence of the vehicle control. b.

[6] = test system: MvfR-regulated small molecules in PA14; test: Production of HAQs, 2-AA, DHQ and AA in PA14 cultures (LC-MS); details: Pseudomonas aeruginosa
[7] = test system: PA14 isogenic mutant ΔmvfR AT/P cells; test: AT/P cell formation in ΔmvfR mutant (off-target); details: Pseudomonas aeruginosa, PA14, 24 h, read-out: AT/P cell formation, ΔmvfR + compound; PA14 about 100; single replicates (Figure 4b)

T1 sequence (Q9I4X0 87-332): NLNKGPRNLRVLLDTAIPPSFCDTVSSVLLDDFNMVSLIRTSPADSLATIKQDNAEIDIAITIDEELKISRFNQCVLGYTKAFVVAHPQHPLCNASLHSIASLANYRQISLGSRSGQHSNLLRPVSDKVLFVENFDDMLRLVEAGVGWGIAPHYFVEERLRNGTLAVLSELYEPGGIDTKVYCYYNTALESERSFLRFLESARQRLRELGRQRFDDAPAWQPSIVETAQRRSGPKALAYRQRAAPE

SMILES: N#Cc1ccc(NC(=O)CC(=O)Nc2ccc(Br)cc2)cc1 [D42]
- inhibition at 10 µM (PA14 AT/P cells): ≥ 76%
- activity at 50 µM ([1]; PA14, 18 h, read-out: % Production Pyocyanin): 6%
- IC50 ([1]; PA14, read-out: IC50 pyocyanin production): 1340 nM
- activity at 50 µM ([2]; PA14, read-out: % Production pqsA-GFP): 8%
- IC50 ([2]; PA14, read-out: IC50 pqsA-GFP expression, PA14, 13 concentrations): 920 nM
- solubility at 4 h [3]: 1.5e-05 M (≈ 5.37 µg/mL)
- Response Unit (RU) (MvfR protein (MvfRC87); Concentration 1.00E-05 M): 30 RU
- Response Unit (RU) (MvfR protein (MvfRC87); Concentration 1.00E-06 M): 23 RU
- Response Unit (RU) (MvfR protein (MvfRC87); Concentration 1.00E-07 M): 10.1 RU
- Response Unit (RU) (MvfR protein (MvfRC87); Concentration 1.00E-08 M): 2.1 RU
- Response Unit (RU) (MvfR protein (MvfRC87); Concentration 3.16E-06 M): 27.4 RU
- Response Unit (RU) (MvfR protein (MvfRC87); Concentration 3.16E-07 M): 16.8 RU
- Response Unit (RU) (MvfR protein (MvfRC87); Concentration 3.16E-08 M): 5 RU
- activity at 50 µM ([4]; read-out: HQNO, ΔmvfR-pqsABCD strain): 90.7%
- activity at 50 µM ([4]; read-out: PQS, ΔmvfR-pqsABCD strain): 98.9%
- activity at 10 µM ([5]; read-out: Pyocyanin production relative to Control, clinical isolate LGR-4325): 15.2%
- activity at 10 µM ([5]; read-out: Pyocyanin production relative to Control, clinical isolate LGR-4326): 9.87%
- activity at 10 µM ([5]; read-out: Pyocyanin production relative to Control, clinical isolate LGR-4327): 23.8%
- activity at 10 µM ([5]; read-out: Pyocyanin production relative to Control, clinical isolate LGR-4328): 15.7%
- activity at 10 µM ([5]; read-out: Pyocyanin production relative to Control, clinical isolate LGR-4330): 16.4%
- activity at 10 µM ([5]; read-out: Pyocyanin production relative to Control, clinical isolate LGR-4331 (first section, r117)): 17.2%
- activity at 10 µM ([5]; read-out: Pyocyanin production relative to Control, clinical isolate LGR-4331 (second section, r140)): 10%
- activity at 10 µM ([5]; read-out: Pyocyanin production relative to Control, clinical isolate LGR-4333): 11.6%
- activity at 10 µM ([5]; read-out: Pyocyanin production relative to Control, clinical isolate LGR-4343): 15.3%
- activity at 10 µM ([5]; read-out: Pyocyanin production relative to Control, clinical isolate LGR-4344): 19.4%
- activity at 10 µM ([5]; read-out: Pyocyanin production relative to Control, clinical isolate LGR-4348): 11.9%
- activity at 10 µM ([5]; read-out: Pyocyanin production relative to Control, clinical isolate LGR-4356): 16.3%
- activity at 10 µM ([5]; read-out: Pyocyanin production relative to Control, clinical isolate LGR-4362): 26.2%
- activity at 10 µM ([5]; read-out: Pyocyanin production relative to Control, clinical isolate LGR-4363): 20.8%
- activity at 10 µM ([5]; read-out: Pyocyanin production relative to Control, clinical isolate LGR-4364 (first section, r326)): 16.1%
- activity at 10 µM ([5]; read-out: Pyocyanin production relative to Control, clinical isolate LGR-4364 (second section, r349)): 16.4%
- activity at 50 µM ([6]; PA14, read-out: % Production 2-AA): 6%
- activity at 50 µM ([6]; PA14, read-out: % Production AA): 701%
- activity at 50 µM ([6]; PA14, read-out: % Production DHQ): 11%
- activity at 50 µM ([6]; PA14, read-out: % Production HHQ): 2%
- activity at 50 µM ([6]; PA14, read-out: % Production HQNO): 14%
- activity at 50 µM ([6]; PA14, read-out: % Production PQS): 8%
- inhibition at 50 µM ([6]; PA14, read-out: HHQ production inhibition): 89 to 99%
- inhibition at 50 µM ([6]; PA14, read-out: HQNO production inhibition): 40 to 92%
- inhibition at 50 µM ([6]; PA14, read-out: PQS production inhibition): 76 to 97%
- inhibition at 50 µM ([6]; PA14, read-out: inhibition of 2-AA production): 82 to 95%
- inhibition at 50 µM ([6]; PA14, read-out: inhibition of DHQ production): 82 to 96%
- activity at 10 µM [7]: 25.1%
